Laboratory results taken from US20240082125A1, “USE OF A SHORT CHAIN FATTY ACID AS ANTIDANDRUFF AGENT” (NANYANG TECHNOLOGICAL UNIVERSITY, priority 2020, published 2024).
Where “and” joins values, the source holds several entries; their conditions need not be identical. Equal values may be shown once.

Legend:
[1] = system: M. restricta ATCC MYA-4611; experiment: M. restricta growth assay, total cell numbers by SYTO9 fluorescence; format: cell-based, Malassezia restricta
Description: (§1) M. restricta ATCC MYA-4611, S. epidermidis ATCC 12228, and C. acnes ATCC 6919 were purchased from ATCC. M. restricta was routinely cultured in modified Dixon (MD) medium (pH 6), composed of 36 g of Malt extract (Sigma 70167), 20 g of Dessicated Oxbile (Sigma 70168), 6 g of Bacto™ Peptone (BD 211677), 1% (v/v) Tween 40 (Sigma P1504), 0.2% (v/v) Oleic Acid (Fluka 75096), and 0.2% (v/v) Glycerol (Promega H5433) in 1 liter of dH2O. C. acnes and S. epidermidis were cultured in modified brain heart infusion (MBHI) medium (pH 7), containing 37 g of BHI base (Accumedia 7116B), 0.4% (v/v) of Tween-40 (Sigma P1504), 0.2% (v/v) of Oleic acid (Fluka 75096), and 0.2% (v/v) of Glycerol (Promega H5433) in 1 liter of dH2O. M. restricta and S. epidermidis were routinely grown under aerobic conditions, shaken at 200 rpm, and C. acnes was grown under anaerobic conditions. All organisms were grown at 33° C. Wherever required, media was supplemented with: sodium acetate (CH3COOH, Sigma Ref. 32319), sodium propionate ([…], Sigma Ref. P1880), sodium butyrate (CH3(CH2)2COOH, Sigma Ref. 303410), valeric acid (CH3(CH2)3COOH, Fluka Ref. 75054). For valeric acid, the pH in modified cell media was neutralized with NaOH (Sodium hydroxide, Sigma 283060).
M. restricta cells from 1 ml of the culture were harvested by centrifugation at 10,000×g for 5 minutes at room temperature. Cells were washed once, pelleted, and re-suspended in 0.9% NaCl solution. Equal volumes of the above cell suspension and SYTO 9 working stock (3 ul SYTO 9 component of the Live/Dead BacLight bacterial viability kit, ThermoFisher Scientific, L7012, diluted in 1 ml of 0.9% NaCl solution) were mixed well, incubated in dark for 10 minutes, and fluorescent intensity unit was measured in a Tecan microplate reader with excitation/emission wavelengths of 485/530 nm. A standard for correlation of fluorescence units and concentration was prepared using a fluorimeter and hemocytometer under a light microscope. This standard curve was used to calculate the total cell numbers.
(§2) M. restricta cells stored as glycerol stocks (30% glycerol in MD medium) were revived by plating on MD agar plates and incubated for 2-3 days at 33° C. A pre-culture was made from the lawn of cells grown on the agar plate. Cells from % of the plate was scrapped off, homogenized after suspending in 70 ml of MD medium in a 250 ml baffled erlenmeyer flask and incubated for 24 hours at 33° C. at 200 rpm. For experiments, 10^7 cell/ml was inoculated in fresh MD medium with or without the short chain fatty acids. Growth was monitored by measuring the cell density with SYTO 9 for up to 24 hours or 96 hours. C. acnes and S. epidermidis were inoculated into MBHI medium at starting cell density of OD600 0.05 and 0.25, respectively. Bacterial growth was measured by plating the serially diluted cultures on Brain Heart Infusion agar plates at different time points and colonies were counted after 72 hours for C. acnes and 24 hours for S. epidermidis.
M. restricta ATCC MYA-4611, S. epidermidis ATCC 12228 and C. acnes ATCC 6919 were purchased from ATCC. M. restricta were routinely cultured in Modified Dixon (MD) medium (pH 6), composed of 36 g of Malt extract (Sigma 70167), 20 g of Dessicated Oxbile (Sigma 70168), 6 g of Bacto™ Peptone (BD 211677), 1% (v/v) Tween 40 (Sigma P1504), 0.2% (v/v) Oleic Acid (Fluka 75096), and 0.2% (v/v) Glycerol (Promega H5433) in 1 liter of dH2O. C. acnes and S. epidermidis were cultured in modified brain heart infusion (MBHI) medium (pH 7), containing 37 g of BHI base (Accumedia 7116B), 0.4% (v/v) of Tween-40 (Sigma P1504), 0.2% (v/v) of Oleic acid (Fluka 75096), and 0.2% (v/v) of Glycerol (Promega H5433) in 1 liter of dH2O. M. restricta and S. epidermidis were routinely grown under aerobic conditions, shaken at 200 rpm, and C. acnes was grown under anaerobic conditions. All organisms were grown at 33° C.

C. acnes ATCC 6919 [2] = experiment: C. acnes growth assay, colony forming units; format: cell-based, Cutibacterium acnes
Description: as §1, §2
(§3) Bacterial growth was quantified by plating the serially diluted cultures on Brain Heart Infusion agar plates at different time points and colonies were counted after 72 hours for C. acnes and 24 hours for Staphylococcus sp.
(§4) M. restricta ATCC MYA-4611, S. epidermidis ATCC 12228 and C. acnes ATCC 6919 were purchased from ATCC. M. restricta were routinely cultured in Modified Dixon (MD) medium (pH 6), composed of 36 g of Malt extract (Sigma 70167), 20 g of Dessicated Oxbile (Sigma 70168), 6 g of Bacto™ Peptone (BD 211677), 1% (v/v) Tween 40 (Sigma P1504), 0.2% (v/v) Oleic Acid (Fluka 75096), and 0.2% (v/v) Glycerol (Promega H5433) in 1 liter of dH2O. C. acnes and S. epidermidis were cultured in modified brain heart infusion (MBHI) medium (pH 7), containing 37 g of BHI base (Accumedia 7116B), 0.4% (v/v) of Tween-40 (Sigma P1504), 0.2% (v/v) of Oleic acid (Fluka 75096), and 0.2% (v/v) of Glycerol (Promega H5433) in 1 liter of dH2O. M. restricta and S. epidermidis were routinely grown under aerobic conditions, shaken at 200 rpm, and C. acnes was grown under anaerobic conditions. All organisms were grown at 33° C. Wherever required, media was supplemented with 50 mM of: sodium propionate ([…], Sigma Ref. P1880), sodium butyrate (CH3(CH2)2COOH, Sigma Ref. 303410), valeric acid (CH3(CH2)3COOH, Fluka Ref. 75054). For valeric acid, the pH in modified cell media was neutralized with NaOH (Sodium hydroxide, Sigma 283060).
(§5) M. restricta cells stored as glycerol stocks (30% glycerol in MD medium) were revived by plating on MD agar plates and incubated for 2-3 days at 33° C. A pre-culture was made from the lawn of cells grown on the agar plate.

[3] = system: S. epidermidis ATCC 12228; experiment: S. epidermidis growth assay, colony forming units; format: cell-based, Staphylococcus epidermidis
Description: as §1, §2, §3, §4, §5

C. acnes ATCC 6919 [4] = experiment: Co-culture assay: C. acnes growth with S. epidermidis biofilm in aerobic condition; format: cell-based, Cutibacterium acnes; details: monitored 24, 48 and 72 hours, FIG. 8
Description: S. epidermidis ATCC 12228, and C. acnes ATCC 6919 were purchased from ATCC. C. acnes and S. epidermidis were cultured in modified brain heart infusion (MBHI) medium (pH 7), containing 37 g of BHI base (Accumedia 7116B), 0.4% (v/v) of Tween-40 (Sigma P1504), 0.2% (v/v) of Oleic acid (Fluka 75096), and 0.2% (v/v) of Glycerol (Promega H5433) in 1 liter of dH2O. S. epidermidis was routinely grown under aerobic conditions, shaken at 200 rpm, and C. acnes was grown under anaerobic conditions. All organisms were grown at 33° C. Wherever required, media was supplemented with: sodium propionate ([…], Sigma Ref. P1880),
C. acnes and S. epidermidis were inoculated in MBHI media at starting cell density of OD600 0.05 and 0.25 respectively. Bacterial growth was measured by plating the serially diluted cultures on Brain Heart Infusion agar plates at different time points and colonies were counted after 72 hours for C. acnes and 24 hours for S. epidermidis.
For co-cultures, equal volumes of exponentially growing cells of the two species were mixed at cell density of 10^5 cells per ml in 24-well glass bottom plates. Growth of each species in co-cultures was quantified by plating the culture suspension on agar medium. […]

CCC(=O)[O-].[Na+] [NaP, sodium propionate]
growth of Malassezia restricta ([1]; 30 mM, MD medium pH 6, FIG. 1): completely inhibit | M. restricta (log10 total cell counts) ([1]; 50 mM, after 72 hours, SYTO9, starting density 1×10^7 cells/ml, replicates #1-#3): 6.95 log10 total cell counts and 6.79 log10 total cell counts and 6.82 log10 total cell counts | growth of C. acnes (C. acnes ATCC 6919 [2]; 30 mM, MBHI medium pH 7, anaerobic, FIG. 2): do not affect | C. acnes (log10 CFUs/ml) (C. acnes ATCC 6919 [2]; 50 mM, after 72 hours, replicates #1-#3): 7.82 log10 CFUs/ml and 8.34 log10 CFUs/ml and 8.29 log10 CFUs/ml | growth of S. epidermidis ([3]; 30 mM, MBHI medium pH 7, aerobic, FIG. 3): do not affect | S. epidermidis (log10 CFUs/ml) ([3]; 50 mM, after 24 hours, replicates #1-#3): 9.16 log10 CFUs/ml and 8.82 log10 CFUs/ml and 9.00 log10 CFUs/ml | C. acnes growth in co-culture with S. epidermidis (C. acnes ATCC 6919 [4]): augmented
